From ChEMBL document CHEMBL1201862, “PubChem BioAssay data set” (2004)
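96-well plates; 48 h exposure; 5 concentrations. Endpoints by linear interpolation between flanking doses. Not reached: highest tested concentration assigned. GI50: concentration for 50% inhibition of growth.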 Active and inactive are the calls of the source. Rule as the data show it: active = GI50 up to about 1.1 µM and inactive = higher.

Experiments:
Experiment in all cases: DTP human tumour cell line panel, 48 h
[1] = tested on: DMS-273
[2] = tested on: U-251
[3] = tested on: SNB-75
[4] = tested on: RXF 393
[5] = tested on: SN12C
[6] = tested on: OVCAR-3
[7] = tested on: SW-620
[8] = tested on: M14
[9] = tested on: SF-295
[10] = tested on: SF-539
[11] = tested on: CCRF-CEM
[12] = tested on: SK-MEL-28
[13] = tested on: TK-10
[14] = tested on: A549
[15] = tested on: EKVX
[16] = tested on: Malme-3M
[17] = tested on: OVCAR-8
[18] = tested on: OVCAR-4
[19] = tested on: NCI-H460
[20] = tested on: COLO 205
[21] = tested on: XF498
[22] = tested on: HCT-15
[23] = tested on: KM12
[24] = tested on: K562
[25] = tested on: 786-0
[26] = tested on: NCI-H522
[27] = tested on: HT-29
[28] = tested on: SNB-19
[29] = tested on: SR
[30] = tested on: LXFL 529
[31] = tested on: UO-31
[32] = tested on: MOLT-4
[33] = tested on: DMS-114
[34] = tested on: M19-MEL
[35] = tested on: RPMI-8226
[36] = tested on: ACHN
[37] = tested on: IGROV-1
[38] = tested on: NCI-H226
[39] = tested on: SK-MEL-2
[40] = tested on: HL-60
[41] = tested on: HOP-62
[42] = tested on: SK-MEL-5
[43] = tested on: KM-20L2
[44] = tested on: LOX IMVI
[45] = tested on: NCI-H23
[46] = tested on: OVCAR-5
[47] = tested on: SF-268
[48] = tested on: UACC-62
[49] = tested on: HCT-116

For Nc1nc(-c2ccco2)cc(-c2ccco2)n1, the GI50 [1] was 5.14 µM (inactive), the GI50 [2] was > 100 µM (inactive) and the GI50 [3] was 64.1 µM (inactive). The GI50 [4] was > 100 µM (inactive), the GI50 [5] was > 100 µM (inactive) and the GI50 [6] was > 100 µM (inactive). The GI50 [7] was > 100 µM (inactive), the GI50 [8] was > 100 µM (inactive) and the GI50 [9] was > 100 µM (inactive). For the same molecule, the GI50 [10] was > 100 µM (inactive), the GI50 [11] was > 100 µM (inactive) and the GI50 [12] was > 100 µM (inactive). For the same molecule, the GI50 [13] was > 100 µM (inactive), the GI50 [14] was > 100 µM (inactive) and the GI50 [15] was > 100 µM (inactive). The GI50 [16] was > 100 µM (inactive), the GI50 [17] was > 100 µM (inactive) and the GI50 [18] was > 100 µM (inactive). For the same molecule, the GI50 [19] was > 100 µM (inactive), the GI50 [20] was > 100 µM (inactive) and the GI50 [21] was > 100 µM (inactive). The GI50 [22] was > 100 µM, the GI50 [23] was > 100 µM (inactive) and the GI50 [24] was > 100 µM (inactive). The GI50 [25] was > 100 µM (inactive), the GI50 [26] was > 100 µM (inactive) and the GI50 [27] was > 100 µM (inactive). The GI50 [28] was 41.8 µM (inactive), the GI50 [29] was > 100 µM (inactive) and the GI50 [30] was > 100 µM (inactive). The GI50 [31] was 42.7 µM (inactive), the GI50 [32] was > 100 µM (inactive) and the GI50 [33] was > 100 µM (inactive). For the same molecule, the GI50 [34] was > 100 µM (inactive), the GI50 [35] was > 100 µM (inactive) and the GI50 [36] was > 100 µM (inactive). For the same molecule, the GI50 [37] was > 100 µM (inactive), the GI50 [38] was 71.3 µM (inactive) and the GI50 [39] was > 100 µM (inactive). The GI50 [40] was > 100 µM (inactive), the GI50 [41] was > 100 µM (inactive) and the GI50 [42] was > 100 µM (inactive). For the same molecule, the GI50 [43] was > 100 µM (inactive), the GI50 [44] was > 100 µM (inactive) and the GI50 [45] was > 100 µM (inactive). The GI50 [46] was > 100 µM (inactive), the GI50 [47] was > 100 µM (inactive) and the GI50 [48] was > 100 µM (inactive). For the same molecule, the GI50 [49] was > 100 µM (inactive).
